Source: article PMC6904773, “Structural and functional characterization of buffalo oviduct-specific glycoprotein (OVGP1) expressed during estrous cycle” (Bioscience Reports, 2019)

Columns and labels:
[1] = biological target: T1, recombinant OVGP1 (buffalo oviduct-specific glycoprotein) (Bubalus bubalis, UniProt A4Z8Y1); assay: intrinsic Trp fluorescence quenching (ex […] nm); type: binding; settings: 10 uM protein, 5-15 mM ligand, 25 mM phosphate buffered saline, pH 7.2, 298 K
T1 construct: gene OVN; recombinant from Escherichia coli, ~58 kDa
T1 sequence (A4Z8Y1 22-540): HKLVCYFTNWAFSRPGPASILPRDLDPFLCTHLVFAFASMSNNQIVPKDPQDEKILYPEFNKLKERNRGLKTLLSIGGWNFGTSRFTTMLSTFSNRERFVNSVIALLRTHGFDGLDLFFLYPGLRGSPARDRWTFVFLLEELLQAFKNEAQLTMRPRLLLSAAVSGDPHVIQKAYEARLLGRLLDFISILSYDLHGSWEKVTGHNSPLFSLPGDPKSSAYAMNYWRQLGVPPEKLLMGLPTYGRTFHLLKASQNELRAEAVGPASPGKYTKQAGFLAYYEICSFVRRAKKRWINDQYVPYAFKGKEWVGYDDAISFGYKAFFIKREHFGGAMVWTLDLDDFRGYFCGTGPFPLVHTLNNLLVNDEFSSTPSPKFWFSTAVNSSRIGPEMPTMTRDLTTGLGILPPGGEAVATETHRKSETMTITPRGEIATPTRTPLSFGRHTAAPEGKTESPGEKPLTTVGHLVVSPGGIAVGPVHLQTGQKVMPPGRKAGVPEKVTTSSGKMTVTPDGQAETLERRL

[2] = biological target: T2, native OVGP1 (buffalo oviduct-specific glycoprotein) (Bubalus bubalis, UniProt A4Z8Y1); assay: intrinsic Trp fluorescence quenching (ex […] nm); type: binding; settings: 10 uM protein, 5-15 mM ligand, 25 mM phosphate buffered saline, pH 7.2, 298 K
T2 construct: gene OVN; native, purified to homogeneity from buffalo oviducts; ~55-90 kDa; glycosylated; secreted mature form (precursor 540 aa, signal peptide 21 aa); monomer
T2 sequence (A4Z8Y1 22-540): T1 sequence (A4Z8Y1 22-540)

Row | Structure (SMILES) | intrinsic Trp fluorescence quenching (ex 280 nm) [1] | intrinsic Trp fluorescence quenching (ex 280 nm) [2]
1 | OC[C@H]1OC(O)[C@@H](O)[C@@H](O)[C@@H]1O (stereo partly drawn) [mannose] | monosaccharides i.e. GlcNAc, GalNAc and mannose complexes of both native and recombinant OVGP1 | monosaccharides i.e. GlcNAc, GalNAc and mannose complexes of both native and recombinant OVGP1
2 | CC(=O)N[C@H]1C(O)O[C@H](CO)[C@@H](O)[C@@H]1O (stereo partly drawn) [GlcNAc] | fluorescence intensity of both native and recombinant OVGP1 decreased with increasing concentrations of ligands | fluorescence intensity of both native and recombinant OVGP1 decreased with increasing concentrations of ligands
3 | CC(=O)N[C@H]1C(O)O[C@H](CO)[C@H](O)[C@@H]1O (stereo partly drawn) [GalNAc] | monosaccharides i.e. GlcNAc, GalNAc and mannose complexes of both native and recombinant OVGP1 | monosaccharides i.e. GlcNAc, GalNAc and mannose complexes of both native and recombinant OVGP1
